In PMC4979471 (Cell Death Discovery, 2015):
Entries after “also recorded” stand apart in the source; their conditions may differ. Read-outs that look alike come from different tables or passages of the source. Values belong to the compound of their own block, whether it stands above or below them.

Tests used:
recombinant human IDO = biological target: T1, recombinant human IDO (Homo sapiens, UniProt P14902); assay: IDO enzymatic assay; assay type: biochemical; conditions: in vitro enzymatic assay
T1 construct: purchased R&D Systems (Minneapolis, MN, USA)
T1 sequence (P14902 whole entry): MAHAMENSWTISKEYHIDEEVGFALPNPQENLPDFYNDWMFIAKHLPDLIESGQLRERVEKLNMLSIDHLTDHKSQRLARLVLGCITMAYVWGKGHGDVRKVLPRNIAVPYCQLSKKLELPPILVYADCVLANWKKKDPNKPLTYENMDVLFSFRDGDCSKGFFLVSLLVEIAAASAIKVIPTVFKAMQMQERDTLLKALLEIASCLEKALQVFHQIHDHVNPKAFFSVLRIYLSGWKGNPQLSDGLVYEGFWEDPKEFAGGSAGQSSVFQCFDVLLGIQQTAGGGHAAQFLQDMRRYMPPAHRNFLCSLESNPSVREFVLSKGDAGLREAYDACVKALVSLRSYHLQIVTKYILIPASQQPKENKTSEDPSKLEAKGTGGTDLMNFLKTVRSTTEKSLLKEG
Experimental: IDO activity was determined as described by Takahashi et al.[25] using recombinant human IDO purchased from R&D Systems (Minneapolis, MN, USA). The yellow pigment derived from kynurenine was measured at 490 nm using the Spectramax microplate reader (Molecular Devices).

[1] = system: indoleamine-2,3-dioxygenase (IDO); conditions: cited from earlier work
[2] = cited from earlier work
[3] = biological target: T2, RIP1 (ATP-binding pocket) (Homo sapiens, UniProt Q13546); assay: Fluorescent polarization (FP) binding assay
T2 construct: GST-RipK1 (1–375) was purified; made in house
T2 sequence (Q13546 1-375): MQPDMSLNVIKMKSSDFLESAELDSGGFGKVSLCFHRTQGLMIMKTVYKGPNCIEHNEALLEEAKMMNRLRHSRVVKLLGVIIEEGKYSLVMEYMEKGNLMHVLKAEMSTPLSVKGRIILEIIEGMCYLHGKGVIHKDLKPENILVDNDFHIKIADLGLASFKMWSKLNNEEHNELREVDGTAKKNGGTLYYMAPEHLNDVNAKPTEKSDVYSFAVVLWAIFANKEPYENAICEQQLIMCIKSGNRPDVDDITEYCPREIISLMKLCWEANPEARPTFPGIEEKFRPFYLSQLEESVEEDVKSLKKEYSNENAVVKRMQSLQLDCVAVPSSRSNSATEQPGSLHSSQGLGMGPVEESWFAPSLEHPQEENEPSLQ
Experimental: A FP-based binding assay was developed to quantitate interaction of novel test compounds at the ATP-binding pocket of RIP1, by competition with a fluorescently labeled ATP-competitive ligand, as previously described.[18] In brief, GST-RipK1 (1–375) was purified and was used at a final assay concentration of 10 nM.

RIP1 kinase = biological target: T3, RIP1 kinase (Homo sapiens, UniProt Q13546); assay: ADP-Glo kinase assay; assay type: biochemical
T3 construct: 10 nM GST-RIPK1 (1–375) and 50 μM ATP; made in house
Experimental: Compound potency against RIP1 kinase activity was determined using an ADP-Glo luminescence assay, which measures the conversion of ATP to ADP as previously described.[18] In brief, the primary reaction consisted of 10 nM GST-RIPK1 (1–375) and 50 μM ATP in 50 mM HEPES pH 7.5, 50 mM NaCl, 30 mM MgCl2, 1 mM DTT, 0.5 mg/ml BSA, and 0.02% CHAPS. Five microliter of enzyme and 5 μl of ATP were added to the plate at twice the final assay concentration and incubated at room temperature for 4 h. The luminescence was measured on a plate reader. Test compound inhibition was expressed as percent inhibition of internal assay controls.

[4] = system: human monocytic U937 cells; assay: TNF+zVAD-induced necroptosis, CellTiter-Glo; assay type: cell-based; conditions: U-937, U937, overnight, read-out: IC50 blocking necroptosis
Experimental: (§1) Mouse fibrosarcoma L929 cells (ATCC# CCL-1) and human monocytic U937 cells (ATCC# CRL-1593.2) were cultured in RPMI media supplemented with 10% heat-inactivated FBS, 100 U/ml penicillin and […] streptomycin. BMDM were prepared from C57BL/6 mice by differentiation with 10 ng/ml M-CSF (R&D Systems) for 7 days and cultured in DMEM medium supplemented with 10% heat-inactivated FBS, 100 U/ml penicillin, 100 μg/ml streptomycin and 0.25 μg/ml amphotericin. Primary human neutrophils were isolated from human blood following the standard method comprised of sequential sedimentation in dextran, density centrifugation in Ficoll–Hypaque and lysis of contaminating red blood cells.
(§2) […] To evaluate the effect of RIP1 inhibitors, cells were pretreated with compound (dose–response) for 30 min. Induced cell death was evaluated 19–21 h later by measuring cellular ATP levels using CellTiter-Glo Luminescent Cell Viability assay (Promega, Fitchburg, WI, USA). To induce necroptosis in neutrophils, freshly isolated human neutrophils were stimulated with TNF (10 ng/ml), QVD-Oph (50 μM) and SMAC mimetic (100 nM). Induced cell death was evaluated as above.

[5] = system: mouse fibrosarcoma L929 cells; assay: TNF+zVAD-induced necroptosis, CellTiter-Glo; assay type: cell-based; conditions: overnight, read-out: IC50 blocking necroptosis
Experimental: as §1, §2

[6] = Pharmacokinetic profile after i.p. administration; assay type: in vivo, C57BL/6 mice; conditions: 10 mg/kg i.p., mice
Experimental: Briefly, pharmacokinetic studies were conducted using n=3 animals per group for each compound. […] Blood samples were obtained at various time points following intraperitoneal injection and diluted 1 : 1 with water prior to storage at −80 °C.
Prior to bioanalysis, samples were thawed and each analyte was isolated using a method based on protein precipitation. The resulting supernatant was injected into an LC/MS/MS system optimized for detection of the compound of interest. Data were reported as quantitative drug concentrations as determined by standard calibration curve analysis. Using these optimized conditions, the typical lower limit of quantitation achieved was 1.00 ng/ml for both compounds.

C57BL/6 mice = assay: TNF+zVAD-induced shock model (temperature loss); assay type: in vivo, mouse; conditions: 15 min before TNF+zVAD
Experimental: Temperature was monitored over the course of 3 h by rectal probe.

Structure (SMILES): CC1=CC(=O)c2ccccc2C1=O [menadione, reference compound]
effect on IDO activity (recombinant human IDO): inhibited enzyme activity with the expected potency

Structure (SMILES): CN1C(=O)NC(Cc2c[nH]c3c(Cl)cccc23)C1=O (stereo not shown) [Nec-1s, 7-Cl-O-Nec-1]
IDO activity ([1]; ref 24): lacks IDO activity
pharmacokinetic properties ([2]; ref 24): improved pharmacokinetic properties

IC50 [3]: 2000 nM
drop off in potency relative to GSK′963 in the FP binding assay [3]: ~ 70 fold
IC50 (RIP1 kinase; read-out: IC50 blocking RIP1 kinase activity): 1000 nM
effect on IDO activity (recombinant human IDO): no effect
exposure compared with GSK′963 [6]: ~ 10 fold
Structure (SMILES): CN1C(=O)C(Cc2c[nH]c3ccccc23)NC1=S (stereo not shown) [Nec-1, Necrostatin-1, reference compound]
IC50 [4]: 2000 nM
IC50 [5]: 1000 nM
protection from TNF+zVAD-induced temperature loss (C57BL/6 mice; 0.2 mg/kg i.p.): no effect
protection from TNF+zVAD-induced temperature loss (C57BL/6 mice; 2 mg/kg i.p.): minimal level of protection; also recorded: no significant protection
IDO inhibition ([1]; ref 22): known to inhibit
IDO inhibition ([1]; ref 25): potent inhibitor
in vivo half-life ([2]; ref 23): short
metabolic stability ([2]; ref 23): quite limited

activity in the FP binding assay [3]: no activity
activity in blocking RIP1 kinase activity (RIP1 kinase): inactive
Structure (SMILES): CC(C)(C)C(=O)N1N=CC[C@@H]1c1ccccc1 [GSK′962]
protection from TNF+zVAD-induced temperature loss (C57BL/6 mice; 20 mg/kg i.p.): no effect
